The target of experiment [1] is T1, human TRPA1 (Homo sapiens, UniProt O75762).
T1 construct: expressed in transfected cells; host or cells: CHO cells (G-418 selection)
Kind of experiment: 45Calcium uptake assay, inhibition of AITC induced calcium uptake in human TRPA1 expressing CHO cells. It counts as cell-based. The following applies: AITC 30 μM; for inhibition at 1 µM: 1.0 μM compound, read-out: human TRPA1 Percentage inhibition at 1.0 μM; for inhibition at 10 µM: 10.0 μM compound, read-out: human TRPA1 Percentage inhibition at 10.0 μM. The source says:
(§1) The illustrative examples of the present invention are screened for TRPA1 activity according to a modified procedure described in (a) Tóth, A. et al. Life Sciences, 2003, 73, 487-498. (b) McNamara C, R. et al, Proc. Natl. Acad. Sci. U.S.A., 2007, 104, 13525-13530. The screening of the compounds can be carried out by other methods and procedures known to persons skilled in the art.
(§2) Screening for TRPA1 Antagonist Using the ^45Calcium Uptake Assay:
(§3) The inhibition of TRPA1 receptor activation was measured as inhibition of allyl isothiocyanate (AITC) induced cellular uptake of radioactive calcium.
(§4) Test compounds were dissolved in 100% DMSO to prepare 10 mM stock and then diluted using plain medium with 0.1% BSA and 1.8 mM CaCl2 to get the desired concentration. The final concentration of DMSO in the reaction was 0.5% (v/v). Human TRPA1 expressing CHO cells were grown in F-12 DMEM medium with 10% FBS, 1% penicillin-streptomycin solution, and 400 μg/ml of G-418. Rat TRPA1 expressing CHO cells were grown in F-12 DMEM medium with 10% FBS, 1% penicillin-streptomycin solution, and 400 μg/ml of Zeocin. Cells were seeded 24 h prior to the assay in 96 well plates so as to get ˜50,000 cells per well on the day of experiment. Cells were treated with the test compounds for 10 minutes followed by the addition of AITC at a final concentration of 30 μM (for human TRPA1) and/or 10 μM (for rat TRPA1) and 5 μCi/ml ^45Ca^+2 for 3 minutes. Cells were washed and lysed using a buffer containing 1% Triton X-100, 0.1% deoxycholate and 0.1% SDS. Radioactivity in the lysate was measured in a Packard TopCount after addition of liquid scintillant. (Toth et al, Life Sciences (2003) 73, 487-498; McNamara C R et al, Proceedings of the National Academy of Sciences, (2007) 104, 13525-13530).
(§5) Concentration response curves were plotted as a % of maximal response obtained in the absence of test antagonist. IC50 values can be calculated from concentration response curve by nonlinear regression analysis using GraphPad PRISM software.

Experiment [2] has as its target T2, rat TRPA1 (Rattus norvegicus, UniProt Q6RI86).
T2 construct: expressed in transfected cells; host or cells: CHO cells (Zeocin selection)
Description: 45Calcium uptake assay, inhibition of AITC induced calcium uptake in rat TRPA1 expressing CHO cells. Type of experiment: cell-based. The following applies: AITC 10 μM; for inhibition at 1 µM: 1.0 μM compound, read-out: rat TRPA1 Percentage inhibition at 1.0 μM; for inhibition at 10 µM: 10.0 μM compound, read-out: rat TRPA1 Percentage inhibition at 10.0 μM.
Text: as §1, §2, §3, §4, §5

T1 sequence (O75762 whole entry): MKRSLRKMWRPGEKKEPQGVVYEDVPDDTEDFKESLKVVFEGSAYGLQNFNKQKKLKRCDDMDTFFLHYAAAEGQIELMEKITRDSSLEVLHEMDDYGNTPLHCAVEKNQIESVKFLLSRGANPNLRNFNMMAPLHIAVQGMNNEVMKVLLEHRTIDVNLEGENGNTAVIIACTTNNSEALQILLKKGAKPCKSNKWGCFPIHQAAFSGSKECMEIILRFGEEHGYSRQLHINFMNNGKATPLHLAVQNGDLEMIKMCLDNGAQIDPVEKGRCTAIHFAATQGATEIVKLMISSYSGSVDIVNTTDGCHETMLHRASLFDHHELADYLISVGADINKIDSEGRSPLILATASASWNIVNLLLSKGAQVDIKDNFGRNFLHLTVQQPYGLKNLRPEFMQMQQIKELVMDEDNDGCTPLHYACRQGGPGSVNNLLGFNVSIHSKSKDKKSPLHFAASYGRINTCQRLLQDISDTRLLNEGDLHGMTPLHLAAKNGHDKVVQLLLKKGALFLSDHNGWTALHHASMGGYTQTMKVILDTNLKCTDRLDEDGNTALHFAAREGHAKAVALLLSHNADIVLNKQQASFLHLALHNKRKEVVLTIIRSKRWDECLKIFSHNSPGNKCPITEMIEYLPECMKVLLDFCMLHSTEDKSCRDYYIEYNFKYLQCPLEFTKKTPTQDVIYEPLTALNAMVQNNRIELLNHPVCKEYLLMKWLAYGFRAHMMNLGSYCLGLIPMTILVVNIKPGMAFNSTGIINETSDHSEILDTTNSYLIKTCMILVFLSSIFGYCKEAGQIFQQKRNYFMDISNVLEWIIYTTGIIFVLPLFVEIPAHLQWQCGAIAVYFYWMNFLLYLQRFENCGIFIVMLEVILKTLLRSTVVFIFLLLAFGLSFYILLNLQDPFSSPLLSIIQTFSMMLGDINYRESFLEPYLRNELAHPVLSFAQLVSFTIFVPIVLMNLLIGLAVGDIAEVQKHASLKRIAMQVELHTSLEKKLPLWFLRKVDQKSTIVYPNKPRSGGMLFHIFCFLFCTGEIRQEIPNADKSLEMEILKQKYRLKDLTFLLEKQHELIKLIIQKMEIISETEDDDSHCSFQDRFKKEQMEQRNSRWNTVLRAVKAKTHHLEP
T2 sequence (Q6RI86 whole entry): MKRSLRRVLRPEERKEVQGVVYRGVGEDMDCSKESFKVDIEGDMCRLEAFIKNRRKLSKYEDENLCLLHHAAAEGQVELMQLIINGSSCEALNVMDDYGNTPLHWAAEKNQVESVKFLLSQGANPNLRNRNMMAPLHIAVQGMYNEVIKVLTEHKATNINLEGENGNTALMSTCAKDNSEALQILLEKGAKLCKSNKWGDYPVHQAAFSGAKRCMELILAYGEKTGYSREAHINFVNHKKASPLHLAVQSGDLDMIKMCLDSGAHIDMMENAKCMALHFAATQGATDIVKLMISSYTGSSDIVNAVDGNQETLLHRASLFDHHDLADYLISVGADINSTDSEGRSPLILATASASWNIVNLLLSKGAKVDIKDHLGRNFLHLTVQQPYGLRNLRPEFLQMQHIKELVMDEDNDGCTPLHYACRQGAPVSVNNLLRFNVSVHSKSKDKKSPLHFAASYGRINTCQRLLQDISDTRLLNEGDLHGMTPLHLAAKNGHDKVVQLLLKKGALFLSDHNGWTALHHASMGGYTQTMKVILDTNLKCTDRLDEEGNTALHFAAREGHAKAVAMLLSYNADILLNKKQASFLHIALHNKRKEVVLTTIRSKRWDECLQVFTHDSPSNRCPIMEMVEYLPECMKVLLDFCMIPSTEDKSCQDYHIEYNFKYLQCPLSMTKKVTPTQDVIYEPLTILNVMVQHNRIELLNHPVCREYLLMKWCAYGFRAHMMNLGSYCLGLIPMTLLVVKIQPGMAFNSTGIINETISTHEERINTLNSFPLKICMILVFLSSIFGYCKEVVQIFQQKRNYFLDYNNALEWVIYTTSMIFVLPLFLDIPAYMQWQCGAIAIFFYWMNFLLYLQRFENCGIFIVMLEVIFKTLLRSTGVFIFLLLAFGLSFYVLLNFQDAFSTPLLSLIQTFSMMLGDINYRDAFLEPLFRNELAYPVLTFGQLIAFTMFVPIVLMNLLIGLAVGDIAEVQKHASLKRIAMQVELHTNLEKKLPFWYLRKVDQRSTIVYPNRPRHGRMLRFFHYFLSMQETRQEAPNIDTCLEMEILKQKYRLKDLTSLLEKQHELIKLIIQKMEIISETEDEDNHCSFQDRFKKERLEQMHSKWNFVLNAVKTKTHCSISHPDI

Usually inhibition stands for the change of the read-out against control, counted positive when it falls. In general, IC50 refers to the midpoint of a concentration-inhibition curve. Take `Cn1c(=O)c2c(CC(=O)Nc3nc(-c4ccc(F)c(C(F)(F)F)c4F)cs3)snc2n(C)c1=O` [Example 9, N-{4-[2,4-Difluoro-3-(trifluoromethyl)phenyl]-1,3-thiazol-2-yl}-2-(5,7-dimethyl-4,6-dioxo-4,5,6,7-tetrahydro[1,2]thiazolo[3,4-d]pyrimidin-3-yl)acetamide]: in experiment [1], the inhibition at 1 µM came out at 98.4%, the inhibition at 10 µM was determined as 98.1% and the IC50 was less than 0.05 µM. Moreover, in experiment [2], the inhibition at 1 µM worked out at 94.7% and the inhibition at 10 µM was determined as 94.1%.
For `Cn1c(=O)c2c(CC(=O)Nc3nc(-c4ccc(Cl)c(C(F)(F)F)c4)cs3)snc2n(C)c1=O` [Example 6, 2-(5,7-Dimethyl-4,6-dioxo-4,5,6,7-tetrahydro[1,2]thiazolo[3,4-c]pyrimidin-3-yl)-N-{4-[4-chloro-3-(trifluoromethyl)phenyl]-1,3-thiazol-2-yl}acetamide], in experiment [1], the inhibition at 1 µM turned out to be 99.3%, the inhibition at 10 µM is 99.6% and the IC50 was less than 0.05 µM. Moreover, in experiment [2], the inhibition at 1 µM came out at 97.3%, the inhibition at 10 µM is 99.3% and the IC50 is more than 0.1 µM.
Consider `Cn1c(=O)c2c(CC(=O)Nc3nc(-c4ccc(F)cc4F)cs3)nsc2n(C)c1=O` [Example 28, N-[4-(2,4-Difluorophenyl)-1,3-thiazol-2-yl]-2-(5,7-dimethyl-4,6-dioxo-4,5,6,7-tetrahydro[1,2]thiazolo[5,4-d]pyrimidin-3-yl)acetamide], for which, in experiment [1], the inhibition at 1 µM turned out to be 98%, the inhibition at 10 µM worked out at 99.6% and the IC50 is less than 0.05 µM. In experiment [2], the inhibition at 1 µM was 92.8% and the inhibition at 10 µM turned out to be 100%.
As for `Cn1c(=O)c2c(CC(=O)Nc3nc(-c4ccc(C(F)(F)F)cc4F)cs3)nsc2n(C)c1=O` [Example 21, 2-(5,7-Dimethyl-4,6-dioxo-4,5,6,7-tetrahydro[1,2]thiazolo[5,4-d]pyrimidin-3-yl)-N-{4-[2-fluoro-4-(trifluoromethyl)phenyl]-1,3-thiazol-2-yl}acetamide], in experiment [1], the inhibition at 1 µM worked out at 99.5%, the inhibition at 10 µM was 100% and the IC50 was less than 0.05 µM. In experiment [2], the inhibition at 1 µM was determined as 100%, the inhibition at 10 µM amounted to 100% and the IC50 was less than 0.05 µM.
Take `Cn1c(=O)c2c(CC(=O)Nc3nc(-c4ccc(C(F)(F)F)c(F)c4F)cs3)nsc2n(C)c1=O` [Example 39, N-{4-[2,3-Difluoro-4-(trifluoromethyl)phenyl]-1,3-thiazol-2-yl}-2-(5,7-dimethyl-4,6-dioxo-4,5,6,7-tetrahydro[1,2]thiazolo[5,4-d]pyrimidin-3-yl)acetamide]: the inhibition at 1 µM was 99.8% in experiment [1] and 96.5% in experiment [2]. Also, the inhibition at 10 µM in experiment [1] was 99.9%; in experiment [2] it was 95.8%.
Consider `Cn1c(=O)c2c(CC(=O)Nc3nc(-c4ccc(F)c(OC(F)(F)F)c4)cs3)snc2n(C)c1=O` [Example 3, 2-(5,7-Dimethyl-4,6-dioxo-4,5,6,7-tetrahydro[1,2]thiazolo[3,4-d]pyrimidin-3-yl)-N-{4-[4-fluoro-3-(trifluoromethoxy)phenyl]-1,3-thiazol-2-yl}acetamide], for which, in experiment [1], the inhibition at 1 µM amounted to 95.5%, the inhibition at 10 µM was found to be 99.5% and the IC50 is less than 0.05 µM. In addition, in experiment [2], the inhibition at 1 µM came to 68.5%, the inhibition at 10 µM came to 98.3% and the IC50 is more than 0.1 µM.
As to `Cn1c(=O)c2c(CC(=O)Nc3nc(-c4cc(F)cc(C(F)(F)F)c4)cs3)nsc2n(C)c1=O` [Example 22, 2-(5,7-Dimethyl-4,6-dioxo-4,5,6,7-tetrahydro[1,2]thiazolo[5,4-d]pyrimidin-3-yl)-N-{4-[3-fluoro-5-(trifluoromethyl)phenyl]-1,3-thiazol-2-yl}acetamide], in experiment [1], the inhibition at 1 µM is 100%, the inhibition at 10 µM came to 100% and the IC50 is less than 0.05 µM. In experiment [2], the inhibition at 1 µM is 98.3% and the inhibition at 10 µM stood at 100%.
For the compound `Cn1c(=O)c2c(CC(=O)Nc3nc(-c4ccc(F)c(OC(F)(F)F)c4)cs3)nsc2n(C)c1=O` [Example 24, 2-(5,7-Dimethyl-4,6-dioxo-4,5,6,7-tetrahydro[1,2]thiazolo[5,4-d]pyrimidin-3-yl)-N-{4-[4-fluoro-3-(trifluoromethoxy)phenyl]-1,3-thiazol-2-yl}acetamide], in experiment [1], the inhibition at 1 µM turned out to be 99.6%, the inhibition at 10 µM came out at 100% and the IC50 was less than 0.05 µM. For the same compound, in experiment [2], the inhibition at 1 µM is 100%, the inhibition at 10 µM turned out to be 99.8% and the IC50 was in the range of 0.05 to 0.1 µM.
As for `Cn1c(=O)c2c(CC(=O)Nc3nc(-c4cc(F)c(C(F)(F)F)c(F)c4)cs3)nsc2n(C)c1=O` [Example 38, N-{4-[3,5-difluoro-4-(trifluoromethyl)phenyl]-1,3-thiazol-2-yl}-2-(5,7-dimethyl-4,6-dioxo-4,5,6,7-tetrahydro[1,2]thiazolo[5,4-d]pyrimidin-3-yl)acetamide], in experiment [1], the inhibition at 1 µM stood at 100%, the inhibition at 10 µM came to 99.9% and the IC50 was less than 0.05 µM. Moreover, in experiment [2], the inhibition at 1 µM came to 100%, the inhibition at 10 µM was determined as 100% and the IC50 is less than 0.05 µM.
Take `Cn1c(=O)c2c(CC(=O)Nc3nc(-c4ccc(F)c(C(F)(F)F)c4F)cs3)nsc2n(C)c1=O` [Example 37, N-{4-[2,4-Difluoro-3-(trifluoromethyl)phenyl]-1,3-thiazol-2-yl}-2-(5,7-dimethyl-4,6-dioxo-4,5,6,7-tetrahydro[1,2]thiazolo[5,4-d]pyrimidin-3-yl)acetamide]: in experiment [1], the inhibition at 1 µM was 98.3%, the inhibition at 10 µM was found to be 99.3% and the IC50 was less than 0.05 µM. In experiment [2], the IC50 was less than 0.05 µM.
In the case of `Cn1c(=O)c2c(CC(=O)Nc3ccn(-c4ccc(Br)cc4)n3)snc2n(C)c1=O` [Example 11, N-[1-(4-Bromophenyl)-1H-pyrazol-3-yl]-2-(5,7-dimethyl-4,6-dioxo-4,5,6,7-tetrahydro[1,2]thiazolo[3,4-d]pyrimidin-3-yl)acetamide], in experiment [1], the inhibition at 1 µM turned out to be 100%, the inhibition at 10 µM is 100% and the IC50 is less than 0.05 µM. In addition, in experiment [2], the inhibition at 1 µM came to 22.9% and the inhibition at 10 µM amounted to 39.7%.
In the case of `Cn1c(=O)c2c(CC(=O)Nc3nc(-c4ccc(OC(F)(F)F)c(F)c4)cs3)snc2n(C)c1=O` [Example 7, 2-(5,7-Dimethyl-4,6-dioxo-4,5,6,7-tetrahydro[1,2]thiazolo[3,4-c]pyrimidin-3-yl)-N-{4-[3-fluoro-4-(trifluoromethoxy)phenyl]-1,3-thiazol-2-yl}acetamide], in experiment [1], the inhibition at 1 µM came to 100%, the inhibition at 10 µM turned out to be 99.5% and the 50% inhibitory concentration (IC50) was less than 0.05 µM. Also, in experiment [2], the inhibition at 1 µM was determined as 79.4%, the inhibition at 10 µM was 100% and the half-inhibitory concentration (IC50) was more than 0.1 µM.
`Cn1c(=O)c2c(CC(=O)Nc3nc(-c4cccc(C(F)(F)F)c4F)cs3)nsc2n(C)c1=O` [Example 23, 2-(5,7-Dimethyl-4,6-dioxo-4,5,6,7-tetrahydro[1,2]thiazolo[5,4-d]pyrimidin-3-yl)-N-{4-[2-fluoro-3-(trifluoromethyl)phenyl]-1,3-thiazol-2-yl}acetamide]: in experiment [1], the inhibition at 1 µM came to 99.3%, the inhibition at 10 µM worked out at 100% and the IC50 is less than 0.05 µM. In addition, in experiment [2], the inhibition at 1 µM is 100%, the inhibition at 10 µM is 100% and the IC50 was less than 0.05 µM.

The record behind these values is patent US8575178B2, “Isothiazolo-pyrimidinedione derivatives as TRPA1 modulators” (Glenmark Pharmaceuticals S.A., priority 2009, dated 2013).
